In ChEMBL document CHEMBL5523728, “Fragment-Based Discovery of a Series of Allosteric-Binding Site Modulators of β-Glucocerebrosidase” (J Med Chem, 2024):
Activity calls are given as the source filed them. The rule behind the calls is not given here.

biological target: T1, Lysosomal acid glucosylceramidase (Homo sapiens) (UniProt P04062); experiment: not given; settings: Fibroblast, dose 0.5 mM, time 27.0 hrs
T1 sequence (whole entry): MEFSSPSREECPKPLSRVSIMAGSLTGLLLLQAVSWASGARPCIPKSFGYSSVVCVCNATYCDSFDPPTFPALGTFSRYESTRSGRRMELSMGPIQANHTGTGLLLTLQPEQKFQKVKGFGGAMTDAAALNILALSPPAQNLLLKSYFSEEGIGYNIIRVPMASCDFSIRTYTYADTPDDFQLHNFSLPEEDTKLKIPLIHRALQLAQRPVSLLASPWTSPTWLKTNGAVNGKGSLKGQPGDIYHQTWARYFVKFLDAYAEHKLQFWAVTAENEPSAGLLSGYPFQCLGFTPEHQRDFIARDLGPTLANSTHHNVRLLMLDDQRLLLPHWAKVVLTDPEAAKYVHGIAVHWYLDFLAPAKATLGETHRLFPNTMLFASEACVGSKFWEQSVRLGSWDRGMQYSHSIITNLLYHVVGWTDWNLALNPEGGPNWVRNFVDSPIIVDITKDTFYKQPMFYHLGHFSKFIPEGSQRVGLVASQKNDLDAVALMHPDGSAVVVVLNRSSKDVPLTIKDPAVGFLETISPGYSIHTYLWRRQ

| inhibition | Compound |
| --- | --- |
| Active | O[C@H]1[C@H](O)[C@@H](O)[C@@H]2O[C@@H]2[C@@H]1O |

biological target: T2, Lysosomal acid glucosylceramidase (Homo sapiens, UniProt P04062); experiment: biochemical; settings: not given
T2 sequence (P04062 whole entry): T1 sequence (whole entry)

| Compound | Kd |
| --- | --- |
| Cc1ccc(S(=O)(=O)NCC(C)N)cc1 (racemic) | 100 µM |
| N[C@H](CNS(=O)(=O)c1cccc(F)c1)c1ccccc1 | 3 µM |
| N[C@H](CNS(=O)(=O)c1ccccc1)c1ccccc1 | 7 µM |
| O=S(=O)(NCC1CC1)c1ccccc1 | 410 µM |
| c1ccc(CC2CCNCC2)cc1 | 19 µM |
| NCC(O)CNS(=O)(=O)c1ccccc1F (racemic) | 180 µM |

Further lines, results first:

| Kd | Compound |
| --- | --- |
| 0.018 µM | CCCOc1cc(F)cc(S(=O)(=O)N(C)C[C@@H](N)c2cccc(N(C)C)c2)c1 |
| 0.22 µM | CN(CC(F)F)c1cccc([C@@H](N)CN(C)S(=O)(=O)c2cc(F)cc(F)c2)c1 |
| 0.25 µM | CN(C[C@H](N)c1cccc(Cl)c1)S(=O)(=O)c1cc(F)cc(F)c1 |
| 1 µM | N[C@H](CNS(=O)(=O)c1cc(F)cc(F)c1)c1ccccc1 |
| 0.05 µM | C=C(C)c1cccc([C@@H](N)CN(C)S(=O)(=O)c2cc(F)cc(F)c2)c1 |
| 0.18 µM | CN(C[C@@H](N)c1cccc(Br)c1)S(=O)(=O)c1cc(F)cc(F)c1 |

biological target: T2, Lysosomal acid glucosylceramidase; experiment: Positive allosteric modulation of GCase in human Fibroblast cells using GBA1-FQ2 as substrate preincubated for 24 hrs followed by substrate addition and measured after 3 hrs by Hoechst 33342 staining based imaging analysis; format: cell-based; settings: not given

| EC50 | Compound |
| --- | --- |
| 8.9 µM | CCCOc1cc(F)cc(S(=O)(=O)N(C)C[C@@H](N)c2cccc(N(C)C)c2)c1 |
| 9 µM | C=C(C)c1cccc([C@@H](N)CN(C)S(=O)(=O)c2cc(F)cc(F)c2)c1 |
